Read-outs that look alike come from different tables or passages of the source. Non-standard residues stand in square brackets, D forms with d. Residues, ends and D or L forms follow the SMILES beside them.

Data set [1] concerns H. pylori (ATCC 43504). The conditions noted are these: ATCC 43504, 24 h. The source says:
H. pylori used in this study were either the reference strain obtained from the American Type Culture Collection (ATCC 43504) or clinical strains received frozen from our collaborator Josette Raymond from Hospital Cochin, Paris. Strains were obtained from patients who underwent a gastroendoscopy performed for various gastro-intestinal disorders according to the recommendations of Haute Autorité de Santé (HAS). During the endoscopy, biopsy samples were taken from antrum and corpus. Samples were then crushed, and the material was used for bacterial culture and molecular methods. An antibiogram was performed and strains were then frozen at -80 °C in a broth with 10% glycerol. Bacteria were cultured as previously described. Briefly, H. pylori (ATCC 43504) was cultured in brain heart infusion (BHI) and incubated at 37 °C for 16 h in microaerophilic condition in BD GasPak EZ using BD GasPak EZ CampyPak container system sachets (BD Biosciences, Le Pont-de-Claix, France). For clinical strains, a sample from the frozen bacteria was streaked on Blood Agar (Base) (Sigma-Aldrich, Illkirch-Graffenstaden, France) supplemented with 5% horse defibrinated blood (Fisher Scientific, Les Ulis, France) and 2% isovitale-X (Fisher Scientific, Illkirch-Graffenstaden, France). The petri dishes were then incubated at 37 °C for 4–7 days in microaerophilic condition. Then, a colony is transferred to 3 mL Mueller Hinton (MH) broth supplemented with 10% fetal bovine serum (FBS) and 2% isovitale-X. The cultures were then incubated for 4–7 days until the bacteria grow before further experiments.
(§1) Briefly, after the growth of H. pylori in liquid culture the optical density (OD) of the bacterial suspensions were read at 600 nm and adjusted to one. Stock solutions of the peptides at 1 mM were prepared in sterile water. Bacteria were diluted in medium to reach bacterial density around 10^5 bacteria/mL. One-hundred microliters per well of bacterial suspension were then added into sterile polypropylene 96-well microplates (Greiner BioOne, Paris, France) and exposed to increasing concentrations of peptides (from zero to 100 µM, 1:2 serial dilution). […] Plates were incubated at 37 °C for 24 h for H. pylori (ATCC 43504) and for 4–7 days for the clinical strains. H. pylori was tested in microaerophilic conditions generated using micro-anaerobic BD GasPak system. At the end of the incubation, OD600nm was measured using microplate reader (Synergy Mx, Biotek, Colmar, France). The MIC was defined as the lowest concentration of drug that inhibited visible growth of the organism. Experiments were conducted in independent triplicate (n = 3).

In data set [2] the test system is N87 cells. In words: In vitro toxicity assay using human gastric cells (resazurin). Type of data set: cell-based. To be noted: for IC50: 48 h. How it is done: [26] Human gastric cells N87 (ATCC CRL-5822) were cultured in RPMI-1640 medium supplemented with 10% fetal calf serum (FCS), 1% L-glutamine and 1% antibiotics (all from Invitrogen, Carlsbad, CA, USA) and were routinely seeded onto 25 cm^2 flasks maintained in a 5% CO2 incubator at 37 °C. For the toxicity assay, cells grown on 25 cm^2 flasks were detached using trypsin–EDTA solution (from Thermofisher), counted using Mallasez counting chamber and seeded into 96-well cell culture plates (Greiner Bio-one) at approximately 10^4 cells per well. The cells were left to grow for 48–72 h at 37 °C in a 5% CO2 incubator until they reached confluence. Plates were then aspirated and increasing concentrations of peptides were added to the cells for 48 h at 37 °C in a 5% CO2 incubator, volume of water corresponding to the volume of peptides being used as negative control. At the end of the incubation, wells were aspirated, and cell viability was evaluated using resazurin-based in vitro toxicity assay kit (Sigma-Aldrich) following manufacturer’s instructions. Briefly, resazurin stock solution was diluted 1:10 in sterile PBS containing calcium and magnesium (PBS^++, pH 7.4) and empty wells were filled with 100 µL of the diluted solution. After 4 h incubation at 37 °C, fluorescence intensity was measured using microplate reader (Synergy Mx, Biotek) with an excitation wavelength of 530 nm and an emission wavelength of 590 nm. The fluorescence values were normalized by the controls and expressed as percent viability.
(In general: Alamar Blue is a resazurin reagent that responds to reducing activity.)

For data set [3], the system named is total lipids extracted from H. pylori (ATCC 43504). In words: Lipid insertion assay (lipid monolayer, critical pressure of insertion). Further details: species or system biophysical. The conditions noted are these: peptide 1 µM, PBS pH 7.4, from the line fits of Figure 4. How it is done: Peptide-lipid interaction was measured using reconstituted lipid monolayer at the air-water interface as previously described. Total lipids were extracted from overnight cultures of H. pylori (ATCC 43504) using Folch extraction procedure as previously described. Extracted total lipids were dried, resolubilized in chloroform:methanol (2:1, v/v) and stored at -20 °C under nitrogen. For peptide-lipid interaction assay, total lipid extract was spread using a 50 μL Hamilton's syringe at the surface of 800 μL of sterile PBS creating a lipid monolayer at the air-water interface. Lipids were added until the surface pressure reached the desired value. […] The variation of the surface pressure caused by peptide injection was then continuously monitored using a fully automated microtensiometer (μTROUGH SX, Kibron Inc., Helsinki, Finland) until reaching equilibrium (maximal surface pressure increase being usually obtained after 15-25 min). […] Variation of surface pressure was plotted as a function of initial surface pressure and the critical pressure of insertion of each peptide into H. pylori lipids was calculated as the theoretical value of initial pressure of lipid monolayer not permissive to peptide insertion, i.e., giving a variation of pressure equal to 0 mN/m.

The test system of data set [4] is H. pylori (ATCC 43504). How it is done:
as §1
(§2) It is also rich with mucus to protect it from the aggressive acidity. For this reason, the impact of mucins and pepsin on the activity of the peptides was investigated. The impact of the gastric mucins on peptide activity was evaluated using a combination of commercial porcine stomach mucins MUC2 and MUC3 (Sigma–Aldrich) at a final concentration of 1 mg/mL sterilized using 0.2 µm filter. This concentration was used based on the estimated concentration of mucins present in the mucus in vivo [27]. The effect of mucins on peptides activity was evaluated by MIC and by time killing assay as explained below. The resistance of the peptides to pepsin was tested as previously described with some changes. […] This concentration was used since it corresponds the pepsin concentration in the stomach (0.5–1 mg/mL).

For data set [5], the system named is H. pylori (ATCC 43504). In words: MIC after digestion by pepsin (resistance to pepsin). To be noted: ATCC 43504, 4 h, pH 2. How it is done: as §1, §2
The test system of data set [6] is H. pylori (ATCC 43504). How it is done: The bactericidal activity of peptides was assessed using the time kill assay as previously described with some modifications. Briefly, overnight liquid culture of H. pylori (ATCC 43504) was prepared and an optical density measurement (OD600nm) was taken to provide an estimation of cell numbers in the culture. Bacterial suspension was then centrifuged at 3000 rpm for 5 min and the bacterial pellet was then resuspended in sterile PBS pH6 at approximatively 10^7 CFU/mL. The pH of PBS was changed from 7 to 6 with HCl to mimic the micro-environment surrounding H. pylori in the stomach. Indeed, although the lumen of the stomach is around 1–2, H. pylori is able, through the activity of its urease, to create a local micro-environment around it of pH 6 [31]. In addition to PBS pH 6, the time kill assay was also performed in PBS pH 6 containing a mixture of porcine stomach mucins MUC2 and MUC3 (at 1 mg/mL, final concentration) or in the presence of human gastric cells N87 producing human mucus. In that particular case, N87 cells were seeded onto 96-wells plates and left to grow for 48–72 h until they reached confluence. At that time, wells were aspirated and bacterial suspension in PBS pH 6 were added to the wells. In all cases, resuspended bacteria (200 µL) were treated with peptides or the conventional antibiotic amoxicillin at a final concentration corresponding to five times their MIC. Bacteria were then incubated in micro-aerobic conditions at 37 °C using GasPak units. […] The petri dishes were then incubated 16 h at 37 °C in microaerophilic conditions before counting of growing colonies. The number of surviving bacteria was calculated using the number of observed colonies and the dilution factor. The experiment was done in triplicate.
This is another data set of the same source.

By IC50 is commonly meant the point on the concentration scale where inhibition reaches its midpoint. Regarding `CC[C@H](C)[C@H](NC(=O)CNC(=O)[C@H](CO)NC(=O)[C@H](CC(C)C)NC(=O)[C@@H](N)Cc1ccccc1)C(=O)N[C@H](C(=O)N[C@H](C)C(=O)N[C@@H](CCSC)C(=O)N[C@@H](CC(C)C)C(=O)NCC(=O)N[C@@H](CCCCN)C(=O)N[C@@H](CC(C)C)C(=O)N[C@@H](Cc1ccccc1)C(N)=O)C(C)C` [NST3, H-Phe^1-Leu^2-Ser^3-Gly^4-Ile^5-Val^6-D-Ala^7-Met^8-Leu^9-Gly^10-Lys^11-Leu^12-Phe^13-NH2] (H-FLSGIV[dA]MLGKLF-NH2), the “MIC on H. pylori (ATCC 43504)” value in data set [1] came out at 3.12 µM. Also, in data set [2], the “increase in toxicity to human gastric cells compared to temporin-SHa” value (from here on “increase in toxicity”) was “around 3 fold” and the IC50 came to 520 ± 148 µM. Further, the “critical pressure of insertion (CPI)” value in data set [3] amounted to 35.73 mN/m. Also, the “MIC in the Presence of mucins” value in data set [4] (ATCC 43504, 24 h) amounted to 6.25 µM. In addition, the “increase of MIC in the presence of mucins” value in data set [4] (MUC2 and MUC3 at 1 mg/mL versus no mucins) is listed as “two”. In addition, in data set [5], the “MIC after Digestion by Pepsin” value is on record as greater than 50 µM.
Take `CC[C@H](C)[C@H](NC(=O)[C@@H](C)NC(=O)[C@H](CO)NC(=O)[C@H](CC(C)C)NC(=O)[C@@H](N)Cc1ccccc1)C(=O)N[C@H](C(=O)N[C@H](C)C(=O)N[C@@H](CCSC)C(=O)N[C@@H](CC(C)C)C(=O)NCC(=O)N[C@@H](CCCCN)C(=O)N[C@@H](CC(C)C)C(=O)N[C@@H](Cc1ccccc1)C(N)=O)C(C)C` [NST4, H-Phe^1-Leu^2-Ser^3-D-Ala^4-Ile^5-Val^6-D-Ala^7-Met^8-Leu^9-Gly^10-Lys^11-Leu^12-Phe^13-NH2] (H-FLS[dA]IV[dA]MLGKLF-NH2): the “MIC on H. pylori (ATCC 43504)” value in data set [1] lay within 6.25 to 12.5 µM. Besides, in data set [2], the “increase in toxicity” value is listed as “around 5 fold” and the IC50 came out at 306 ± 48.4 µM. Moreover, the “critical pressure of insertion (CPI)” value in data set [3] came to 39.12 mN/m.
The like results for `CC[C@H](C)[C@H](NC(=O)CNC(=O)[C@H](CO)NC(=O)[C@H](CC(C)C)NC(=O)[C@@H](N)Cc1ccccc1)C(=O)N[C@H](C(=O)N[C@H](C)C(=O)N[C@@H](CCSC)C(=O)N[C@@H](CC(C)C)C(=O)N[C@H](C)C(=O)N[C@@H](CCCCN)C(=O)N[C@@H](CC(C)C)C(=O)N[C@@H](Cc1ccccc1)C(N)=O)C(C)C` [NST6, H-Phe^1-Leu^2-Ser^3-Gly^4-Ile^5-Val^6-D-Ala^7-Met^8-Leu^9-D-Ala^10-Lys^11-Leu^12-Phe^13-NH2] (H-FLSGIV[dA]ML[dA]KLF-NH2) were, in that order, 3.12 µM, “around 15 fold”, 104 ± 9.3 µM and 44.43 mN/m.
For `CC[C@H](C)[C@H](NC(=O)[C@@H](C)NC(=O)[C@H](CO)NC(=O)[C@H](CC(C)C)NC(=O)[C@@H](N)Cc1ccccc1)C(=O)N[C@H](C(=O)NCC(=O)N[C@@H](CCSC)C(=O)N[C@@H](CC(C)C)C(=O)N[C@H](C)C(=O)N[C@@H](CCCCN)C(=O)N[C@@H](CC(C)C)C(=O)N[C@@H](Cc1ccccc1)C(N)=O)C(C)C` [NST7, H-Phe^1-Leu^2-Ser^3-D-Ala^4-Ile^5-Val^6-Gly^7-Met^8-Leu^9-D-Ala^10-Lys^11-Leu^12-Phe^13-NH2] (H-FLS[dA]IVGML[dA]KLF-NH2), in data set [2], the “increase in toxicity” value is “around 15 fold” and the IC50 came to 84.7 ± 9 µM. Besides, the “critical pressure of insertion (CPI)” value in data set [3] stood at 33 mN/m.
Regarding `CC1(C)S[C@@H]2[C@H](NC(=O)[C@H](N)c3ccc(O)cc3)C(=O)N2[C@H]1C(=O)O` [amoxicillin, reference compound], the killing in data set [6] (20 min, PBS pH 6, 5-times MIC) is recorded as 9%; in data set [6] (3 h (180 min), PBS pH 6, 5-times MIC), 34%; in data set [6] (3 h, absence or presence of mucus, 5-times MIC), 31.5–55%; in data set [6] (9 h (540 min), 5-times MIC), 75%.

The values are drawn from publication PMC6843786, “Temporin-SHa and Its Analogs as Potential Candidates for the Treatment of Helicobacter pylori” (Biomolecules, 2019).
